Like-named read-outs stand apart in the source and are kept apart here.
What was measured:
ZIKV strain PAN2016 [1] = test: Plaque reduction inhibition assay, ZIKV PAN2016 in Vero E6 cells; format: cell-based; settings: Zika virus
ZIKV strain FLR [2] = test: Plaque reduction inhibition assay, ZIKV FLR in Vero E6 cells; format: cell-based; settings: Zika virus
ZIKV strain R103451 = test: Plaque reduction inhibition assay, ZIKV R103451 in Vero E6 cells; format: cell-based; settings: Zika virus
ZIKV strain PRVABC59 [3] = test: Plaque reduction inhibition assay, ZIKV PRVABC59 in Vero E6 cells; format: cell-based; settings: Zika virus
ZIKV strain PLCal_ZV = test: Plaque reduction inhibition assay, ZIKV PLCal_ZV in Vero E6 cells; format: cell-based; settings: Zika virus
ZIKV strain IbH 30656 = test: Plaque reduction inhibition assay, ZIKV IbH 30656 in Vero E6 cells; format: cell-based; settings: Zika virus, Vero C1008, read-out: IC50 IbH 30656
[4] = system: ZIKV mosquito strain MEX 2–81; test: Plaque reduction inhibition assay, ZIKV MEX 2–81 in Vero E6 cells; format: cell-based; settings: Zika virus
[5] = system: ZIKV rhesus macaque strain MR 766; test: Plaque reduction inhibition assay, ZIKV MR 766 in Vero E6 cells; format: cell-based; settings: Zika virus, Vero C1008, in Macaca mulatta, read-out: IC50 MR 766
DENV-1-V1792 = test: Plaque reduction inhibition assay, DENV-1 in LLC-MK2 cells; format: cell-based; settings: Dengue virus, DENV1
DENV-2-V594 = test: Plaque reduction inhibition assay, DENV-2 in LLC-MK2 cells; format: cell-based; settings: Dengue virus, DENV2
DENV-3-V1043 = test: Plaque reduction inhibition assay, DENV-3 in LLC-MK2 cells; format: cell-based; settings: Dengue virus, DENV3
DENV-4-PR 06-65-740 = test: Plaque reduction inhibition assay, DENV-4 in LLC-MK2 cells; format: cell-based; settings: Dengue virus, DENV4
ZIKV (PAN2016) = test: Time-of-addition experiment, ZIKV PAN2016 in Vero E6 cells; format: cell-based, Zika virus (ZIKV); settings: for inhibition of ZIKV infection, step a: pretreatment of ZIKV: natural product with ZIKV 37 °C 1 h before cells; for inhibition at 7.5 µM: Zika virus, Vero C1008, 1 h
ZIKV strain PAN2016 [6] = format: cell-based, Zika virus (ZIKV); settings: for IC50: Zika virus
ZIKV strain FLR [7] = format: cell-based, Zika virus (ZIKV); settings: for IC50: Zika virus
nine ZIKV strains = test: Plaque reduction inhibition assay, nine additional ZIKV strains (summary); format: cell-based; settings: Zika virus, Vero C1008; range over nine additional ZIKV strains, Vero E6 cells; read-out: IC50 values against all nine ZIKV strains tested
[8] = target: binding between ZIKV EDIII protein and EDIII-specific human mAbs (Zika virus, UniProt A0A024B7W1); settings: ELISA; no binding between ZKA78 and EDIII
binding between ZIKV EDIII protein and EDIII-specific human mAbs, sequence (A0A024B7W1 588-699): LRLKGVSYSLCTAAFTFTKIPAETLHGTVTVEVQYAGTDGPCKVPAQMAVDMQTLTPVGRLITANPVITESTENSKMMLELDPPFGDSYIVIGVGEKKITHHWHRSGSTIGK

in vitro [9] = settings: African green monkey
in vitro [10] = settings: rhesus monkey
in vitro [11] = settings: African green monkey; remark: listed apart in the source
Vero E6 cells [12] = test: Initial screening: cytotoxicity observed under a microscope; settings: initial screening at 20 µM
ZIKV strain R116265 = test: Plaque reduction inhibition assay, ZIKV R116265 in Vero E6 cells; format: cell-based; settings: Zika virus, Vero C1008
ZIKV strain PAN2015 = test: Plaque reduction inhibition assay, ZIKV PAN2015 in Vero E6 cells; format: cell-based; settings: Zika virus, Vero C1008
[13] = target: ZIKV full-length E protein (Zika virus, UniProt A0A024B7W1); format: binding; settings: ELISA
ZIKV full-length E protein, sequence (A0A024B7W1 291-794): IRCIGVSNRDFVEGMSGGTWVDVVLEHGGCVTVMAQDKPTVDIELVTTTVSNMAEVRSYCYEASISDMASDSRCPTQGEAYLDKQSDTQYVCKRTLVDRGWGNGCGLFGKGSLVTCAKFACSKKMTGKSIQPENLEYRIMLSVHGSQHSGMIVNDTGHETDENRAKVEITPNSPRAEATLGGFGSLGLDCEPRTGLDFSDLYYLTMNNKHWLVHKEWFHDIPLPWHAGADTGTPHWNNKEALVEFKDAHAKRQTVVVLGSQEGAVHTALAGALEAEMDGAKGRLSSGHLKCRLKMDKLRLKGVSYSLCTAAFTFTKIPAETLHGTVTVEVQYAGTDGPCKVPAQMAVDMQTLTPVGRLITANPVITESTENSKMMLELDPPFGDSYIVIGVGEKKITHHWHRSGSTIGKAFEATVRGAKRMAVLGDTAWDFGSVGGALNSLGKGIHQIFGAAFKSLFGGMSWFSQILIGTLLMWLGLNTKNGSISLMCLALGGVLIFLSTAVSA

[14] = target: T1, ZIKV envelope protein domain III (EDIII) protein (Zika virus, UniProt A0A024B7W1); format: binding; settings: ELISA
T1 construct: E residues 298–409 fused with a C-terminal human Fc; made in house
T1 sequence (A0A024B7W1 588-699): as the sequence (A0A024B7W1 588-699) above

ZIKV strain PRVABC59 [15] = format: cell-based, Zika virus (ZIKV)
[16] = Combinatorial cytotoxicity of gossypol with other natural products, CCK8; settings: African green monkey
Vero E6 cells [17] = test: as above; settings: Vero E6; for Fold of Enhancement of cytotoxicity (natural product with gossypol): (CC50 alone)/(CC50 in the mixture)—1
[18] = gossypol 15 µM, curcumin 30 µM, digitonin 7.5 µM, conessine 30 µM
[19] = Vero C1008, read-out: IC50 Alone

Cc1cc2c(C(C)C)c(O)c(O)c(C=O)c2c(O)c1-c1c(C)cc2c(C(C)C)c(O)c(O)c(C=O)c2c1O [Gossypol, gossypol]
IC50 (ZIKV strain PAN2016 [1]; Vero C1008, read-out: IC50 PAN2016): 3.48 ± 0.03 µM | IC90 (ZIKV strain PAN2016 [1]; Vero C1008, read-out: IC90 against ZIKV PAN2016 strain): ~6.91 µM | IC50 (ZIKV strain FLR [2]; Vero C1008, read-out: IC50 FLR): 0.21 ± 0.01 µM | IC50 (ZIKV strain R103451; Vero C1008, read-out: IC50 R103451): 2.28 ± 0.1 µM | IC90 (ZIKV strain PRVABC59 [3]; Vero C1008, read-out: IC90 against ZIKV strain PRVABC59): ~8.81 µM | IC50 (ZIKV strain PLCal_ZV; Vero C1008, read-out: IC50 PLCal_ZV): 1.98 ± 0.07 µM | IC50 (ZIKV strain IbH 30656): 3.31 ± 0.11 µM | IC50 ([4]; Vero C1008, read-out: IC50 MEX 2–81): 2.79 ± 0.01 µM | IC50 [5]: 3.75 ± 0.01 µM | IC50 (DENV-1-V1792): 1.87 ± 0.01 µM | IC50 (DENV-2-V594): 1.89 ± 0.21 µM | IC50 (DENV-3-V1043): 3.7 ± 0.59 µM | IC50 (DENV-4-PR 06-65-740): 2.6 ± 0.12 µM | inhibition of ZIKV infection, step e: penetration (membrane fusion) (ZIKV (PAN2016); cells with ZIKV 4 °C 1 h, then natural product 37 °C 1 h, gossypol 15 µM, curcumin 30 µM, digitonin 7.5 µM, conessine 30 µM): maintained its infectivity | inhibition of ZIKV infection, step f: postentry stage (ZIKV (PAN2016); cells with ZIKV 37 °C 1 h, then natural product 37 °C 1 h, gossypol 15 µM, curcumin 30 µM, digitonin 7.5 µM, conessine 30 µM): maintained its infectivity | inhibition of ZIKV infection, step b: pretreatment of cells (ZIKV (PAN2016); cells with natural product 37 °C 1 h before ZIKV, gossypol 15 µM, curcumin 30 µM, digitonin 7.5 µM, conessine 30 µM): maintained its infectivity | inhibition of ZIKV infection, step c: cotreatment at 4 °C (attachment) (ZIKV (PAN2016); cells, ZIKV and natural product 4 °C 1 h, gossypol 15 µM, curcumin 30 µM, digitonin 7.5 µM, conessine 30 µM): maintained its infectivity | inhibition of ZIKV infection, step d: cotreatment at 37 °C (ZIKV (PAN2016); cells, ZIKV and natural product 37 °C 1 h, gossypol 15 µM, curcumin 30 µM, digitonin 7.5 µM, conessine 30 µM): maintained its infectivity | inhibition of ZIKV infection, step a: pretreatment of ZIKV (ZIKV (PAN2016); [18]): completely lost its infectivity | IC50 (ZIKV strain PAN2016 [6]; [19]): 3.79 ± 0.01 µM | IC50 (ZIKV strain FLR [7]; [19]): 0.26 ± 0.01 µM | IC50 (nine ZIKV strains): 0.21 to 4.31 µM | inhibition with control mAb ZKA78 (EDI/DII-specific) [8]: no obvious inhibition | CC50 at 3 days (in vitro [9]): 14.2 ± 0.74 µM | CC50 at 3 days (in vitro [10]): 14.5 ± 0.59 µM | CC50 at 3 days (in vitro [11]): 14.8 ± 0.42 µM | cytotoxicity in Vero E6 cells observed under a microscope (Vero E6 cells [12]): no obvious cytotoxicity

C[C@@H]1CC[C@@]2(OC1)O[C@H]1[C@@H](O)[C@H]3[C@@H]4CC[C@H]5C[C@@H](O[C@@H]6O[C@H](CO)[C@H](O[C@@H]7O[C@H](CO)[C@@H](O)[C@H](O[C@@H]8OC[C@@H](O)[C@H](O)[C@H]8O)[C@H]7O[C@@H]7O[C@H](CO)[C@H](O)[C@H](O[C@@H]8O[C@H](CO)[C@@H](O)[C@H](O)[C@H]8O)[C@H]7O)[C@H](O)[C@H]6O)[C@H](O)C[C@]5(C)[C@H]4CC[C@]3(C)[C@H]1[C@@H]2C [Digitonin, digitonin]
IC90 (ZIKV strain PAN2016 [1]; Vero C1008, 90% plaque reduction, Vero E6 cells, read-out: IC90 against ZIKV PAN2016 strain): ~7.91 µM | IC50 (ZIKV strain PAN2016 [1]; Vero C1008, plaque reduction, Vero E6 cells, read-out: IC50 PAN2016): 4.31 ± 0.23 µM | IC50 (ZIKV strain R116265): 6.52 ± 0.59 µM | IC50 (ZIKV strain PAN2015): 5 ± 0.01 µM | IC50 (ZIKV strain FLR [2]; Vero C1008, plaque reduction, Vero E6 cells, read-out: IC50 FLR): 3.34 ± 0.22 µM | IC50 (ZIKV strain R103451; Vero C1008, plaque reduction, Vero E6 cells, read-out: IC50 R103451): 4.3 ± 0.43 µM | IC50 (ZIKV strain PRVABC59 [3]; Vero C1008, plaque reduction, Vero E6 cells): 3.76 ± 1.12 µM | IC50 (ZIKV strain PLCal_ZV; Vero C1008, plaque reduction, Vero E6 cells, read-out: IC50 PLCal_ZV): 3.19 ± 0.25 µM | IC50 ([4]; Vero C1008, plaque reduction, Vero E6 cells, read-out: IC50 MEX 2–81): 3.84 ± 0.12 µM | IC50 ([5]; plaque reduction, Vero E6 cells): 3.77 ± 0.31 µM | IC50 (DENV-1-V1792): 5.21 ± 0.35 µM | IC50 (DENV-2-V594): 6.56 ± 0.21 µM | IC50 (DENV-3-V1043): 4.07 ± 0.83 µM | IC50 (DENV-4-PR 06-65-740): 6.44 ± 0.34 µM | inhibition at 7.5 µM (ZIKV (PAN2016); read-out: inhibition of ZIKV infection, step c: cotreatment at 4 °C (attachment)): 49 to 74% | inhibition at 7.5 µM (ZIKV (PAN2016); read-out: inhibition of ZIKV infection, step d: cotreatment at 37 °C): ≥ 94% | inhibition at 7.5 µM (ZIKV (PAN2016); read-out: inhibition of ZIKV infection, step e: penetration (membrane fusion)): 49 to 74% | inhibition at 7.5 µM (ZIKV (PAN2016); read-out: inhibition of ZIKV infection, step f: postentry stage): 49 to 74% | inhibition of ZIKV infection, step a: pretreatment of ZIKV (ZIKV (PAN2016); [18]): no effect | binding to ZIKV full-length E protein (in words) [13]: did not bind | binding to ZIKV EDIII protein (in words) [14]: did not bind | Fold of Enhancement (natural product with gossypol) (ZIKV strain PAN2016 [6]; ZIKV PAN2016, (IC50 alone)/(IC50 in the mixture)—1): 2.21 | CI (combination index) of gossypol with the named natural product (ZIKV strain PAN2016 [6]; ZIKV PAN2016, CI < 1 synergy): 0.60 | IC50 (ZIKV strain PAN2016 [6]; Vero C1008, ZIKV PAN2016, Vero E6, natural product without combination, read-out: IC50 Alone): 4.85 ± 0.24 µM | CI (combination index) of gossypol with the named natural product (ZIKV strain FLR [7]; ZIKV FLR, CI < 1 synergy): 0.95 | IC50 (ZIKV strain FLR [7]; Vero C1008, ZIKV FLR, Vero E6, natural product without combination, read-out: IC50 Alone): 3.86 ± 0.02 µM | Fold of Enhancement (natural product with gossypol) (ZIKV strain PRVABC59 [15]; ZIKV PRVABC59, (IC50 alone)/(IC50 in the mixture)—1): 5.98 | CI (combination index) of gossypol with the named natural product (ZIKV strain PRVABC59 [15]; ZIKV PRVABC59, CI < 1 synergy): 0.29 | IC50 (ZIKV strain PRVABC59 [15]; Zika virus, Vero C1008, ZIKV PRVABC59, Vero E6, natural product without combination, read-out: IC50 Alone): 3.84 ± 0.81 µM | CC50 at 3 days (in vitro [9]): 56.3 ± 1.2 µM | CC50 at 3 days (in vitro [10]): 59.02 ± 0.33 µM | cytotoxicity in Vero E6 cells observed under a microscope (Vero E6 cells [12]): no obvious cytotoxicity | CC50 at 3 days [16]: 50.63 ± 0.22 µM | Fold of Enhancement of cytotoxicity (natural product with gossypol) (Vero E6 cells [17]): 2.60 | Fold of Enhancement of cytotoxicity (natural product with gossypol) (Vero E6 cells [17]; listed as digitonin): about 2.60 | CI (combination index, cytotoxicity) of gossypol with the named natural product (Vero E6 cells [17]; based on CC50): 1.36

Reference: publication PMC6893700 (Viruses, 2019)
